Results: publication PMC10584170, “Machine learning-based phenotypic imaging to characterise the targetable biology of Plasmodium falciparum male gametocytes for the development of transmission-blocking antimalarials” (PLOS Pathogens, 2023)

Columns and labels:
[1] = test system: P. falciparum male gametocytes; experiment: P. falciparum Dual Gamete Formation Assay (PfDGFA), male readout (exflagellation); type: cell-based, Plasmodium falciparum NF54; details: for Average inhibition male (%): average of replicates; for % inhibition male (individual replicates) R1: replicate R1; for % inhibition male (individual replicates) R3: replicate R3; for % inhibition male (individual replicates) R4: replicate R4; for Activity: hit = >50% inhibition in male or female readout in at least 3 replicates, 0 = no class assigned
In short: (§1)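 Read-outs are automated image counts of exflagellation centres (brightfield, 10 frames over 1 s) and Pfs25-positive female gametes (Cy3 fluorescence).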

[2] = test system: P. falciparum female gametocytes; experiment: P. falciparum Dual Gamete Formation Assay (PfDGFA), female readout (Pfs25-positive female gametes); type: cell-based, Plasmodium falciparum NF54; details: for Average inhibition female (%): average of replicates; for % inhibition female (individual replicates) R1: replicate R1; for % inhibition female (individual replicates) R3: replicate R3; for % inhibition female (individual replicates) R4: replicate R4
In short: as §1

[3] = 2µM, 24h preincubation with gametocytes prior to induction of gametogenesis
[4] = 2µM, 24h preincubation, number of replicates with >50% inhibition in the male readout
[5] = 2µM, 24h preincubation, number of replicates with >50% inhibition in the female readout
[6] = PfDGFA at 2µM, 24h preincubation with gametocytes prior to induction of gametogenesis
[7] = PfDGFA at 2µM, 24h preincubation
[8] = 2µM, 24h preincubation, hits selected on >50% inhibition in the male readout across replicates
[9] = 2µM, 24h preincubation, hits selected on >50% inhibition in the female readout across replicates
[10] = PfDGFA at 2µM, 24h preincubation with gametocytes
[11] = number of replicates with >50% inhibition in the male readout, 2µM
[12] = number of replicates with >50% inhibition in the female readout, 2µM

SMILES	Average inhibition male (%) [1, 3] [%]	% inhibition male (individual replicates) R1 [1, 3] [%]	% inhibition male (individual replicates) R3 [1, 3] [%]	% inhibition male (individual replicates) R4 [1, 3] [%]	HitlevelM [1, 4]	Average inhibition female (%) [2, 3] [%]	% inhibition female (individual replicates) R1 [2, 3] [%]	% inhibition female (individual replicates) R3 [2, 3] [%]	% inhibition female (individual replicates) R4 [2, 3] [%]	HitlevelF [2, 5]	HitlevelM [1, 8]	Activity [1, 7]	HitlevelF [2, 9]	other results
COc1ccc(CNC2Cc3ccccc3C2)cc1-c1cccc(S(=O)(=O)NCCN2CCCC2)c1.O=C(O)C(F)(F)F [TCMDC-132269]	7.0	7.1	-13.3	18.2	0	23.4	14.9	-7.5	55.1	1	–	–	–	–
COc1ccc(CNCc2ccc(F)cc2)cc1-c1ccc(S(=O)(=O)NCCN2CCCC2)cc1.O=C(O)C(F)(F)F [TCMDC-132294]	-4.3	-26.4	–	1.5	0	26.6	28.2	29.3	24.2	0	–	–	–	–
Cl.N[C@@H](CCNC1CCN(c2cccc(C(F)(F)F)c2)CC1)Cc1ccc(F)c(F)c1 [TCMDC-132301]	53.1	61.1	44.2	79.6	2	52.8	47.6	42.6	73.6	1	–	–	–	–
CC(O)C1CCCCN1C(=O)c1ccc(-c2ccc(-c3nc4ccccc4[nH]3)s2)cc1 (stereo not drawn) [TCMDC-132330]	–	–	–	–	–	–	–	–	–	–	–	–	–	% inhibition male (individual replicates) R1 [1, 6]: 10.5%; % inhibition male (individual replicates) R3 [1, 6]: 7.6%; % inhibition male (individual replicates) R4 [1, 6]: 19.6%; Average inhibition male (%) [1, 7]: 14.0%; % inhibition female (individual replicates) R1 [2, 6]: 7.4%; % inhibition female (individual replicates) R3 [2, 6]: -27.3%; % inhibition female (individual replicates) R4 [2, 6]: 14.9%; Average inhibition female (%) [2, 7]: -1.0%
CN(C)Cc1ccc(-c2ccc(NC(=O)c3ccc4c(=O)n(Cc5ccccc5)cnc4c3)cc2)cc1 [TCMDC-132361]	62.7	57.2	–	53.6	3	36.5	37.4	28.0	35.8	0	–	–	–	–
COc1ccc(-c2cccc(CNC3CCN(C)CC3)c2)cc1S(=O)(=O)NCc1ccccc1.O=C(O)C(F)(F)F [TCMDC-132375]	31.3	25.4	11.7	56.9	–	14.0	15.7	4.8	20.5	–	1	0	0	–
Cc1cc(-c2cccc(CNC3CCN(C)CC3)c2)ccc1S(=O)(=O)NCc1ccccc1.O=C(O)C(F)(F)F [TCMDC-132379]	43.8	43.1	25.4	55.6	–	17.5	20.6	25.5	-4.5	–	2	0	0	–
COc1ccc(CNC2CCN(C)CC2)cc1-c1ccc(S(=O)(=O)NCc2ccccc2)c(C)c1.O=C(O)C(F)(F)F [TCMDC-132480]	–	–	–	–	–	–	–	–	–	–	–	–	–	Average inhibition male (%) [1, 10]: 78.0%; % inhibition male (individual replicates) R1 [1, 10]: 73.4%; % inhibition male (individual replicates) R3 [1, 10]: 67.7%; % inhibition male (individual replicates) R4 [1, 10]: 91.6%; HitlevelM [1, 11]: 4; Average inhibition female (%) [2, 10]: 36.3%; % inhibition female (individual replicates) R1 [2, 10]: 30.7%; % inhibition female (individual replicates) R3 [2, 10]: 36.3%; % inhibition female (individual replicates) R4 [2, 10]: 41.6%; HitlevelF [2, 12]: 0
CCS(=O)(=O)c1ccc(-c2cnc3[nH]cc(-c4ccc(N)cc4)c3c2)cc1 [TCMDC-132582]	35.5	70.7	–	-32.7	2	24.2	25.6	29.8	22.2	0	–	–	–	–
Cc1cccc2nc(-c3ccc(-c4cccc(CNC5CCN(C)CC5)c4)s3)[nH]c12.O=C(O)C(F)(F)F [TCMDC-132736]	63.8	48.5	–	67.2	–	18.0	17.1	23.2	22.3	–	2	0	0	–
CN(CCN)Cc1ccc(-c2ccc(-c3nc4cc(C(F)(F)F)ccc4[nH]3)s2)cc1.O=C(O)C(F)(F)F [TCMDC-132821]	-7.8	-14.8	–	-7.6	–	8.7	4.7	20.4	7.1	–	0	0	0	–
CNCCNCc1ccc(-c2ccc(-c3nc4cc(F)ccc4[nH]3)s2)cc1.O=C(O)C(F)(F)F [TCMDC-132829]	–	–	–	–	–	–	–	–	–	–	–	–	–	Average inhibition male (%) [1, 10]: 66.0%; % inhibition male (individual replicates) R1 [1, 10]: 54.3%; % inhibition male (individual replicates) R4 [1, 10]: 78.8%; HitlevelM [1, 11]: 3; Average inhibition female (%) [2, 10]: 12.3%; % inhibition female (individual replicates) R1 [2, 10]: 11.4%; % inhibition female (individual replicates) R3 [2, 10]: 10.0%; % inhibition female (individual replicates) R4 [2, 10]: 9.0%; HitlevelF [2, 12]: 0
CNCCNCc1cccc(-c2ccc(-c3nc4cc(C(F)(F)F)ccc4[nH]3)s2)c1.O=C(O)C(F)(F)F [TCMDC-132830]	36.6	35.0	16.5	60.2	1	26.5	19.8	8.2	49.8	0	–	–	–	–
